Test results from ChEMBL document CHEMBL1201862, “PubChem BioAssay data set” (2004).
Blank lines part the entries; values can stand above or below the compound they belong to. Calls of active or inactive are those of the source.

Assays:
Prothrombin = Prothrombin (Homo sapiens, UniProt P00734); experiment: Thrombin 1536 HTS Dose Response Confirmation. [Related pubchem assays: 1046 (Thrombin 1536 HTS; hits were confirmed in this assay)]; assay type: functional
[1] = THP-1 cell cytotoxicity, dose response, cytotoxicity control for Vif-APOBEC3G degradation inhibitor project, THP-1 cells (AID 1117359); assay type: functional; conditions: Human immunodeficiency virus 1, THP-1
[2] = biological target: T1, Heat shock factor protein 1 (Mus musculus, UniProt P38532); experiment: inhibition of MG132-induced HSE-luciferase signal, confirmation, cell-based, NIH3T3, luminescence, dose retest (AID 2382); assay type: functional;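 note: NIH3T3 fibroblasts with HSF1-driven luciferase reporter stressed by proteasome inhibitor MG132; luminescence from HSF1-driven luciferase expression after 8 hours of MG132 stress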
T1 sequence (P38532 whole entry): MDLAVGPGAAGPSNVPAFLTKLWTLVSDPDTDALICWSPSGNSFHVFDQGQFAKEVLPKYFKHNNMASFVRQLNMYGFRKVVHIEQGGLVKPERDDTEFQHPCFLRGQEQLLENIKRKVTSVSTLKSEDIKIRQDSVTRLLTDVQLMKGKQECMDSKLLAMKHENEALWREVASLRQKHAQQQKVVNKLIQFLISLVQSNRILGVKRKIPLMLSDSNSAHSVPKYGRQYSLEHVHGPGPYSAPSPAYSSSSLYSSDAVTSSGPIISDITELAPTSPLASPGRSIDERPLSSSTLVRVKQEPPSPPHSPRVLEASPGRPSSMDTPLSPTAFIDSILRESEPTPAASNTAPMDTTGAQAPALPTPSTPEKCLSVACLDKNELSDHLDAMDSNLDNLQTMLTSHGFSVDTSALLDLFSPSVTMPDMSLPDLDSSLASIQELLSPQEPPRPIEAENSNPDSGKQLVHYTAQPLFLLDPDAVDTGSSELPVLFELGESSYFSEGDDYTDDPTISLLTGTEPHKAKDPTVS

[3] = biological target: T2, Histone-lysine N-methyltransferase NSD2 (Homo sapiens, UniProt O96028); assay type: biochemical
T2 sequence (O96028 whole entry): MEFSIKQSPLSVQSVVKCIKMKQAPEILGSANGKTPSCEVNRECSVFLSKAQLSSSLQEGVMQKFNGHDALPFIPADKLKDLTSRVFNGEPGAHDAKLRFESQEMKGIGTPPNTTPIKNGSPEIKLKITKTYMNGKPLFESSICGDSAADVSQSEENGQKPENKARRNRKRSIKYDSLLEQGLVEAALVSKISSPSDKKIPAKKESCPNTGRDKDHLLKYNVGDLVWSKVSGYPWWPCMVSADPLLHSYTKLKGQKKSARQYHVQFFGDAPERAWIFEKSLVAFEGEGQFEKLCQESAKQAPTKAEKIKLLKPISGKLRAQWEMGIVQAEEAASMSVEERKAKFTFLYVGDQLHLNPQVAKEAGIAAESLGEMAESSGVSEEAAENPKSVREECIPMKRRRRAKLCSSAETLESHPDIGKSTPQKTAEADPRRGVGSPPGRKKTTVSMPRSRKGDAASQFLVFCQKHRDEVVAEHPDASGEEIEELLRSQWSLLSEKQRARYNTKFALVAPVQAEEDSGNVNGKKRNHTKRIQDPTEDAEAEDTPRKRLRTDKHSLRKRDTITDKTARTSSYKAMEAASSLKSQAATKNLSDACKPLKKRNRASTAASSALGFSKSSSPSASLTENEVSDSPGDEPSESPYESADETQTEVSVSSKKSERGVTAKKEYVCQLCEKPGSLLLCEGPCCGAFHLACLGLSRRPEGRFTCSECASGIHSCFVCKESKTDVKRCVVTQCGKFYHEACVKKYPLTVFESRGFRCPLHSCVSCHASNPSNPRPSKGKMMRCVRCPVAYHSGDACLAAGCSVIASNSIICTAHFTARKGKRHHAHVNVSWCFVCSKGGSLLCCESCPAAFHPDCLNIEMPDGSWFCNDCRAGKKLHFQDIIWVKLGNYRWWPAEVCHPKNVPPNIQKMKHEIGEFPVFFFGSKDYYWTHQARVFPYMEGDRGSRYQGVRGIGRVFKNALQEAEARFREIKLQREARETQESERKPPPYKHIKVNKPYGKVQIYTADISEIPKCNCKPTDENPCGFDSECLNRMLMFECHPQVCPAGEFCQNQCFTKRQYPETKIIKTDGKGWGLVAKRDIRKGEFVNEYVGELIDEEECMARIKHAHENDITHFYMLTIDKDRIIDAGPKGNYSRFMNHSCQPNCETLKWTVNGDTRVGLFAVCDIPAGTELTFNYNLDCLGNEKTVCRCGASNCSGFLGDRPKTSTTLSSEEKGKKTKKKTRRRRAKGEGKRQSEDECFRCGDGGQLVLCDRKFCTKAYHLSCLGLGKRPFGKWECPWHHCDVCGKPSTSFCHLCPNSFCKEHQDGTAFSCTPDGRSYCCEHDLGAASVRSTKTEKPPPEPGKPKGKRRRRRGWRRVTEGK

Caspase-6 = biological target: T3, Caspase-6 (Homo sapiens, UniProt P55212); experiment: human caspase-6 inhibitors, dose response, biochemical, VEID-R110 fluorescence, cherry-pick (AID 720632)
T3 sequence (P55212 whole entry): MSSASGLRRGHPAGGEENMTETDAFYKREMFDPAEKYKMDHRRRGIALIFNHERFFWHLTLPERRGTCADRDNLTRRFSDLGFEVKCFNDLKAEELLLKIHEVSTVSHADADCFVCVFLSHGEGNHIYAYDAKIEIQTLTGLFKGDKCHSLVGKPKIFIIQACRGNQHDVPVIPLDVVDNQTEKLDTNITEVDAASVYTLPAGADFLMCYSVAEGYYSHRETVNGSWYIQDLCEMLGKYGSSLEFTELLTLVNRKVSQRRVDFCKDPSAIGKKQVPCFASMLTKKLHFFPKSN

[4] = biological target: FAD-linked sulfhydryl oxidase ALR (Homo sapiens, UniProt P55789); experiment: inhibitors of human ALR sulfhydryl oxidase, dose response, biochemical, H2O2 detection, luminescence, cherry-pick (AID 493248)
[5] = NIH:OVCAR-3 ovarian cancer cell cytotoxicity, dose response, PAX8 inhibitor project, plate reader, dry powder samples (AID 743044); assay type: functional, cell-based
Paired box protein Pax-8 = Paired box protein Pax-8 (Homo sapiens, UniProt Q06710); experiment: inhibitors of PAX8-driven TPO luciferase reporter, dose response, RMG-I cells, cherry-pick (AID 687027); assay type: functional, cell-based;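 note: luciferase reporter driven by Pax8 target thyroperoxidase promoter measured by SteadyGlo luminescence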
Estrogen receptor beta = Estrogen receptor beta (Homo sapiens, UniProt Q92731);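 note: recombinant ER-beta bound to coactivator SRC1 peptide in presence of estradiol agonist; inhibitors block coactivator peptide binding and lower the FRET signal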
INS1 = experiment: beta cell apoptosis inhibitors, cytokine rescue, dose response, luminescence, retest (AID 449756); assay type: functional, cell-based; conditions: Rattus norvegicus;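 note: cell death triggered by IL-1 beta plus TNF-alpha plus IFN-gamma mixture; protective hits raise ATP signal compared with cytokine alone wells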
[6] = growth suppression of PTEN-null colon cells, dose response, cell-based, HCT116 PTEN knockout (AID 1047); assay type: functional;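 note: HCT116 colon tumor cells with PTEN knocked out; cells exposed to compound for 60 hours before readout; potency for loss of cell viability measured by luminescence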
[7] = Luminescence Cell-Based Dose Retest to Confirm Inhibitors of Cancer Stem Cells. [Related pubchem assays (depositor defined):AID2717, AID2721]; assay type: functional; conditions: Homo sapiens
[8] = growth suppression of beta-catenin-knockout colon cells, dose response, cell-based, HCT116, human colon tumor (AID 1045); assay type: functional;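 note: HCT116 colon tumor cells with beta catenin knocked out; cells exposed to compound for 60 hours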
[9] = inhibitors of intracellular T. cruzi replication, confirmation, NIH3T3 host cells, beta-gal luminescence (AID 2044); assay type: functional, cell-based;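 note: intracellular parasites grown in NIH/3T3 mouse fibroblasts as host cells; luminescent beta-galactosidase reporter signal from transgenic T. cruzi replicating inside host cells; inhibitors lower the luminescence signal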
[10] = cytotoxicity toward NIH3T3 fibroblasts, dose response, counter-screen, cell-based, ATP luminescence, mouse fibroblasts (AID 2010); assay type: functional;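 note: cells exposed to compound for about 90 hours before reading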

Chain of FAD-linked sulfhydryl oxidase ALR (P55789 whole entry): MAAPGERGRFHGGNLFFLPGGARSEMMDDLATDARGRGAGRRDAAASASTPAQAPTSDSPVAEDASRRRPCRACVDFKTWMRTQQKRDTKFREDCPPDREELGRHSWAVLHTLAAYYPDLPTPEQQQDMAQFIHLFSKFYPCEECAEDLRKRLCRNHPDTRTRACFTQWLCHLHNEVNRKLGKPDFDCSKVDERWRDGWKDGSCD
Chain of Estrogen receptor beta (Q92731 whole entry): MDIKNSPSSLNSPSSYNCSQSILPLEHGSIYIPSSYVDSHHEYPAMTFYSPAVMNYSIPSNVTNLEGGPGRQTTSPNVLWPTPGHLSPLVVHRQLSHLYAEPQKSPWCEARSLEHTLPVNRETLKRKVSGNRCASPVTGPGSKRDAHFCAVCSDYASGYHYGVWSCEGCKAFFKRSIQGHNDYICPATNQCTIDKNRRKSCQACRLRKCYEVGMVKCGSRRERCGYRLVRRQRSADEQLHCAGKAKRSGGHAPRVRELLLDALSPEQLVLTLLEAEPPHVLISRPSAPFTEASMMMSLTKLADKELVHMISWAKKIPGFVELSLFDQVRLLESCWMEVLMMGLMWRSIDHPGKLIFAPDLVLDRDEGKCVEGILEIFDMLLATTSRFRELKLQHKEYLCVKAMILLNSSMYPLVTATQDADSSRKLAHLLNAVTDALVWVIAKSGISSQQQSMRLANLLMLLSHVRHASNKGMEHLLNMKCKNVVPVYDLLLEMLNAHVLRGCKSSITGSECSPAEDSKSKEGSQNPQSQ
Chain of Paired box protein Pax-8 (Q06710 whole entry): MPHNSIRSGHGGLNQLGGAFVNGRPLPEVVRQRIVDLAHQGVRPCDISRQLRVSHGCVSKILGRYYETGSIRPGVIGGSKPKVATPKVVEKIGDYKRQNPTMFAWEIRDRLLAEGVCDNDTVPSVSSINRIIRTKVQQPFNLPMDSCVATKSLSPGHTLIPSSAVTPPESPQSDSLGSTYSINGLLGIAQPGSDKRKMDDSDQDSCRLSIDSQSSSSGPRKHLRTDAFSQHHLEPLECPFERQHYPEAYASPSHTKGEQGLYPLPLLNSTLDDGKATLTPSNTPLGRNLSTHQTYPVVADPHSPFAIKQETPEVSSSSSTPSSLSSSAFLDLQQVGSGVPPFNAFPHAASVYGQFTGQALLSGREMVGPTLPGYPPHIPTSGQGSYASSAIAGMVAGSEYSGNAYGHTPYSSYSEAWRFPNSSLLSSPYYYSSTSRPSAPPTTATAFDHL

SMILES: C[C@@H]1CN([C@H](C)CO)C(=O)c2cc(NS(=O)(=O)c3cccs3)ccc2O[C@@H](C)CCCCO[C@H]1CN(C)Cc1ccc(Cl)c(Cl)c1
AC50 [5]: 46.5 µM (active)
AC50 (Paired box protein Pax-8): 9.2 µM (active)

SMILES: Cc1nc2c(=O)[nH]c(=S)[nH]c2nc1O
AC50 [3]: 16.2 µM (active)
AC50 (Caspase-6): 6.58 µM (active)

SMILES: O=C(NCc1cccnc1)/C(=C/c1ccc(-c2cccc(Cl)c2)o1)S(=O)(=O)c1ccccc1
AC50 (INS1): 6.06 µM (active)
EC50 [6]: 2.02 µM (active)
AC50 [7]: 1.73 µM (active)
EC50 [8]: 2.02 µM (active)

SMILES: C=C(C)C1CC=C(CN2CCN(Cc3ccccc3)CC2)CC1 (configuration not stated)
EC50 (cells): 0.189 µM (active)
EC50 [9]: < 0.1 µM (active)
EC50 [10]: > 60 µM (not active)

SMILES: O=C(/C=C/c1ccc(Cl)cc1)c1cccnc1
EC50 [6]: 1.75 µM (active)
EC50 [8]: 0.793 µM (active)

Continued, in another order:

IC50 (Prothrombin): > 50 µM (not active)
SMILES: COc1ccccc1N=C(S)N(Cc1ccco1)Cc1cc2cc(C)ccc2nc1O

IC50 (Prothrombin): > 50 µM (not active)
SMILES: CC(C)NC(=O)CSc1nc(-c2ccccc2)cs1

EC50 [2]: > 195 µM (not active)
SMILES: CCOc1ccccc1NC(=O)Cn1c(-c2ccc(Cl)cc2)noc1=O
CC50 [1]: > 40 µM (active)

AC50 [3]: 7.21 µM (active)
AC50 (Caspase-6): 6.79 µM (active)
AC50 [4]: 0.24 µM (active)
SMILES: CCc1ccc2cccc3c2c1N=CN3C

IC50 (Prothrombin): > 50 µM (not active)
SMILES: CCc1ccc(NC2CC(=O)N(c3ccc(OC)cc3OC)C2=O)cc1 (configuration not stated)

IC50 (Estrogen receptor beta): > 50 µM (not active)
SMILES: Cn1nc(CC(=O)Nc2ncc(Br)s2)c2ccccc2c1=O
